# “Also recorded” adds a separate entry of the source.
# Tests used:
# [1] = system: Vha68-1, Vha68-2 (fly orthologs of ATP6V1A); assay: Vha68-1/Vha68-2 mRNA levels in fly brains after drug feeding; assay type: in vivo, Drosophila; conditions: fed
# Experimental: (§1) Since Vha68-2 decreased more dramatically compared to Vha68-1 in Aβ42 fly brains (FIG. 4Q), an inference was made that NCH-51 treatment counteracts pathological reductions in Vha68-2 levels. […] More than 25 flies for each genotype were collected and frozen. Heads were mechanically isolated, and total RNA was extracted using TRIzol Reagent (Thermo Fisher Scientific) according to the manufacturer's protocol with an additional centrifugation step (16,000×g for 10 min) to remove cuticle membranes prior to the addition of chloroform. Total RNA was reverse-transcribed using PrimeScript RT-PCR kit (TaKaRa Bio), and qRT-PCR was performed using Thunderbird SYBR qPCR Mix (Toyobo) on a CFX96 real time PCR detection system (Bio-Rad Laboratories). The average threshold cycle value was calculated from at least three replicates per sample. Expression of genes of interest was standardized relative to GAPDH1. Primer sequences are provided below. Flies were fed with the food containing 10 μM or 50 μM NCH51 or vehicle (final concentration 0.02% dimethyl sulfoxide) from the day after eclosion. These food vials were changed every 3-4 days.
# Aβ42 flies = assay: Neurodegeneration (vacuole area) in Aβ42 fly brains after drug feeding; assay type: in vivo, Drosophila
# Experimental: Aβ42 flies were treated with 0, 10, or 50 μM of NCH-51 during aging to examine its effects on neurodegeneration.
# Heads of male flies were fixed in 4% paraformaldehyde for 24 hours at 4° C. and embedded in paraffin. Serial sections (6 μm thickness) through the entire heads were prepared, stained with hematoxylin and eosin (Sigma-Aldrich), and examined by bright-field microscopy. Images of the sections were captured with AxioCam 105 color (Carl Zeiss). To score brain vacuolization, the inventors performed microscopy of serial brain sections within the central neuropil regions and selected the images with the most severe vacuolization from each fly to score area of vacuolization. The inventors selected the section with the most severe neurodegeneration in the same brain area from each individual fly and the area of vacuoles was measured using Image J (NIH). The analyses were performed more than two times and two to three persons were independently involved in these tasks to avoid any bias.
# Flies were fed with the food containing 10 μM or 50 μM NCH51 or vehicle (final concentration 0.02% dimethyl sulfoxide) from the day after eclosion. These food vials were changed every 3-4 days.
# [2] = system: SYN1, SCL17A7/VGLUT, PSD95, HOMER1; assay: Synaptic marker mRNA and protein levels in iNs; assay type: cell-based, human
# Experimental: Quantitative reverse transcription PCR (qRT-PCR) was performed as previously described. Specifically, cell cultures were harvested with Trizol and total RNA extraction was carried out following the manufacturer's instructions. Quantitative transcript analysis was performed using a QuantStudio 7 Flex Real-Time PCR System with the Power SYBR Green RNA-to-Ct Real-Time qPCR Kit (all Thermo Fisher Scientific). Total RNA template (25 ng per reaction) was added to the PCR mix, including primers listed below. qPCR conditions were as follows; 48° C. for 30 min, 95° C. for 10 min followed by 40 cycles (95° C. for 15 s, 60° C. for 60 s). All qPCR data is collected from at least 3 independent biological replicates of one experiment. Data analyses were performed using GraphPad PRISM 6 software.
# Images were captured and quantified using the Odyssey® Imaging Systems (LI-COR. Inc.).
# [3] = system: hiPSC-derived NGN2 neurons; assay: Multi-electrode array (MEA) neuronal activity; assay type: cell-based, human; conditions: 3 μM NCH-51
# Experimental: To evaluate electrical activity of NGN2-neurons by MEA, density-matched isogenic NGN2-neuronal populations, co-cultured with pHAs, were prepared as described above. Specifically, at day 3, pHAs were split as 17,000 cells/well in a Matrigel-coated 48W MEA plate (Axion Biosystems, M768-tMEA-48W) and maintained as above. At day 7, NGN2-neurons were detached, spun down and seeded on the pHA culture. Outer space of each well in the plate was filled up with autoclaved/deionized water to minimize the evaporation of marginal wells (“edge effect”) during long-term culture. Half volume of neuronal medium (supplemented with 2% FBS) was replaced with fresh medium including 200 nM Ara-C from day 9 until the end of MEA recording. Electrical activity of neurons was recorded daily during day 14-24. On the recording day, the plate was loaded into the Axion Maestro MEA reader (Axion Biosystems). Recording was performed via AxiS 2.4 for 10 mins. Quantitative analysis of the recording was exported as a Microsoft excel sheet. Data were analyzed using GraphPad PRISM 6 software.
# A stock solution of LQ081-166 (molecular weight: 452.63) at 3 mM is prepared in dimethyl sulfoxide (DMSO). Once prepared, aliquot the stock solution into 100 μL amounts and store at −80° C. Avoid repeated freeze-thaw cycles. The stock is diluted 1000× into neuronal medium to obtain 3 μM for assays. After 24-hour treatment, RNA was extracted from cells for quantitative PCR. In the MEA assay, LQ081-166 was added on neuronal differentiation day 14. Replace with medium containing drug or vehicle every 2-3 days until the final recording day.
# [4] = system: 16 genes related to synaptic biology; assay: mRNA levels of key regulator genes of neuronal activity in Aβ42 fly brains; assay type: in vivo, Drosophila
# Experimental: as §1, with “Aβ42 flies were treated with 0, 10, or 50 μM of NCH-51 during aging” for “Since Vha68-2 decreased more dramatically compared”, “examine its effects on neurodegeneration.” for “Vha68-1 in Aβ42 fly brains (FIG. 4Q), an inference was made that NCH-51 treatment counteracts pathological reductions in Vha68-2 levels.”
# [5] = Aβ42 flies, 50 μM in food vs 0 μM
smiles,measurement,setting,value
CC(C)C(=O)SCCCCCCC(=O)Nc1nc(-c2ccccc2)cs1 [NCH-51],mRNA levels of Vha68-2,"[1]; Aβ42 fly brains, dose-dependent",significantly increased; also recorded: increased mRNA levels of Vha68-2
same,mRNA levels of Vha68-1 or Vha68-2,[1]; control flies,did not increase
same,neurodegeneration in cell body and central neuropil regions,Aβ42 flies; 21-day-old Aβ42 fly brains,suppressed neurodegeneration
same,cell loss (cell body region neurodegeneration),Aβ42 flies; [5],significantly suppressed
same,neuropil degeneration,Aβ42 flies; [5],significantly suppressed
same,SCL17A7 mRNA level,"[2]; 3 μM, 24-hr, iNs, P<0.001",dramatically elevates
same,presynaptic SYN1 mRNA level,"[2]; 3 μM, 24-hr, iNs, P<0.001",dramatically elevates
same,HOMER1 levels,[2]; ATP6V1A KD iNs or isogenic controls,increased the HOMER1 levels
same,postsynaptic PSD95,[2]; iNs,no effect
same,SYN1 protein level,"[2]; iNs, 3 μM, P<0.01",similarly increased
same,VGLUT protein level,"[2]; iNs, 3 μM, P<0.05",similarly increased
same,restoration of neuronal activity (MEA),[3]; ATP6V1A KD iNs,partially restoring neuronal activity
same,neuronal activity (MEA spike events),[3]; iNs,potent activator of neuronal activity
same,mRNA levels of synaptic biology related genes,[4]; dose-dependent,increased mRNA levels of synaptic biology related genes
same,number of key regulator genes of neuronal activity with increased mRNA levels,[4]; fed,9 out of 16

# From patent US20240327427A1, “NEW COMPOUNDS FOR THE TREATMENT OF ALZHEIMER'S DISEASE” (Icahn School of Medicine at Mount Sinai, priority 2020, published 2024)
